# In patent US20040039040A1, “Urea derivative and adhesive-molecule inhibitor containing the same as active ingredient” (priority 2000, published 2004):
# Key:
# [1] = target: VLA-4-IgG chimera protein (Homo sapiens, UniProt P05556+P13612); experiment: Inhibitory effect against binding between CS-1 peptide and VLA-4-IgG chimera protein; conditions: binding of VLA-4-IgG chimera protein to immobilized CS-1 peptide-rabbit IgG conjugate; compound preincubated 20 min; 30° C. 3 hours; absorbance at 490 nm
# Chain of VLA-4-IgG chimera protein (P13612 with tags, fused parts or gaps limits assumed): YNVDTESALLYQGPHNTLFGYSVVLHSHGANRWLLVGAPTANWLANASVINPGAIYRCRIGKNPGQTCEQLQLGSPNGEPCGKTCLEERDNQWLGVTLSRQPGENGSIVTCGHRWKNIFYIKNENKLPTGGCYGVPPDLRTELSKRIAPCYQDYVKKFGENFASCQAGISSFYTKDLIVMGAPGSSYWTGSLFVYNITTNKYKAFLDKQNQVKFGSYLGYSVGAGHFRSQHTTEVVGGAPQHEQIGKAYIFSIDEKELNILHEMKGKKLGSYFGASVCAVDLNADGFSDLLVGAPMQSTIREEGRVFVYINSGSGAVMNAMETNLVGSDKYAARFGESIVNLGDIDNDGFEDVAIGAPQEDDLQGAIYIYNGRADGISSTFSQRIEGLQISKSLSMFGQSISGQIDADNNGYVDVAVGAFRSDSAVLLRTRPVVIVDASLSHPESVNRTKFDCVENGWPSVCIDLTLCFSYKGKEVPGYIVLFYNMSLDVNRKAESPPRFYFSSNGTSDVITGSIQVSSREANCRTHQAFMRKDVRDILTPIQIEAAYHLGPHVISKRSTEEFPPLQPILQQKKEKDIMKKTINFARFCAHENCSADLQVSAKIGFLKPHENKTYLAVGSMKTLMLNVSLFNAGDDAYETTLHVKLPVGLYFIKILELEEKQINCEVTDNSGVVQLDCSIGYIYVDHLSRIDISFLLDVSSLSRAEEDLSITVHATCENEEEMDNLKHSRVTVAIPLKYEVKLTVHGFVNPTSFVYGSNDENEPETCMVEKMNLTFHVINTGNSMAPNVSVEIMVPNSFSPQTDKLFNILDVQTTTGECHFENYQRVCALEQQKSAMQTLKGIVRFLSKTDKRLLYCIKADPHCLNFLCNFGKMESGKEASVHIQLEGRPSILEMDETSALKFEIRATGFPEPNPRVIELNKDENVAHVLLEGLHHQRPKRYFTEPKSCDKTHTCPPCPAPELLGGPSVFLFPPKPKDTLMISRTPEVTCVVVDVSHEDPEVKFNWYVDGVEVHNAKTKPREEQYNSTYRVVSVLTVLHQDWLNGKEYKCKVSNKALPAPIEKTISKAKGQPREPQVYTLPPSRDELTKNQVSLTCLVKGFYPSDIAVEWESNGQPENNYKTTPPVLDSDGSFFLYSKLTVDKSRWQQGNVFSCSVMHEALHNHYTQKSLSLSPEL
# Chain of VLA-4-IgG chimera protein (P05556 with tags, fused parts or gaps limits assumed): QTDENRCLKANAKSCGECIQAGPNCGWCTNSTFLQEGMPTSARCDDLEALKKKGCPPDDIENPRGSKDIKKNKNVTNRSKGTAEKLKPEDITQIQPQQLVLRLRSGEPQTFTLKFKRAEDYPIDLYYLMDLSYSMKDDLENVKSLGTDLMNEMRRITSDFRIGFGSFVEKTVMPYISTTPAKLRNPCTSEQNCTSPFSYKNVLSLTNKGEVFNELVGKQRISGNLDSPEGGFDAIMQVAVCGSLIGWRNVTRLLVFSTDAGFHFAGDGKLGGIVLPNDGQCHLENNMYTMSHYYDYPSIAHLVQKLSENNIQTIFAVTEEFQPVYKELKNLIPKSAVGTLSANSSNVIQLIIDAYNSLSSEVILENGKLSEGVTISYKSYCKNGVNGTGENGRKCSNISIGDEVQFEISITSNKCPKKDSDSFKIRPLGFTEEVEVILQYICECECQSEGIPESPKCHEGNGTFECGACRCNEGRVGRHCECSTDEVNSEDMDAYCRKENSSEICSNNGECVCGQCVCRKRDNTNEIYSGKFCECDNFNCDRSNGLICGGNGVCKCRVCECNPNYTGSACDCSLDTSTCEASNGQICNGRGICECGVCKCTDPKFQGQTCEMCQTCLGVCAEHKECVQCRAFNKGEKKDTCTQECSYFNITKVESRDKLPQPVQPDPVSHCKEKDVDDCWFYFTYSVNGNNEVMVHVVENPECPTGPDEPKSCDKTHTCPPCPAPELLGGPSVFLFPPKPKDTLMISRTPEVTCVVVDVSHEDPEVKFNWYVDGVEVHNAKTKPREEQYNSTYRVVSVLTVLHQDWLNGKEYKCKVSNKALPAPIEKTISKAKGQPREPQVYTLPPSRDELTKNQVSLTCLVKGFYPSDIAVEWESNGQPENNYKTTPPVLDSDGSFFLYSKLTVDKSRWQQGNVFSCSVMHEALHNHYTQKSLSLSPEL
# Experimental: The inhibitory activity of the compound according to the present invention against the adhesion of VLA-4 may be determined by using an adhesion-measuring system in which the adhesion between VLA-4-expressing cells such as Ramos cells or Jurkat cells and fibronectin or fibronectin fragment such as a peptide containing CS-1 sequence (Gly Pro Glu Ile Leu Asp Val Pro Ser Thr) (hereinafter referred to as “CS-1 peptide”), immobilized on an immunoplate is measured. Alternatively, a binding-measuring system in which the adhesion between VLA-4 protein and fibronectin or fibronectin fragment such as CS-1 peptide, immobilized on an immunoplate may be used. In the present invention, it is preferred to evaluate the inhibitory activity of a compound using a binding-measuring system in which adhesion between a chimera protein of VLA-4-immunoglobulin (VLA-4-IgG chimera protein) and CS-1 peptide (Japanese Patent Application No. H9-234544), but the method is not restricted thereto. The “VLA-4-IgG chimera protein” herein means the heterodimer complex of the chimera protein between α4 of VLA-4 and immunoglobulin (hereinafter referred to as “VLAα4-IgG chimera protein”) and a chimera protein between β1 of VLA-4 and immunoglobulin (hereinafter referred to as “VLAβ1-IgG chimera protein”). As the immunoglobulin, although heavy chain or light chain of IgG, IgM or the like may be used, IgG1 heavy chain is used in the present invention. When testing the inhibitory effect of a compound, it is preferred to mix VLA-4-IgG chimera protein and the test compound previously.
# In accordance with the teaching of a report (Humphrise, M. J. et al. J.Bio.Chem., 262,6886-6892(1987)), a conjugate between a peptide (Gys Leu His Gly Pro Glu Glu Ile Leu Asp Val Pro Ser Thr) containing CS-1 sequence and rabbit IgG (Sigma) was prepared. This was diluted with phosphate buffer (hereinafter referred to as “PBS(−)” for short), and the obtained solution was placed in the wells of a 96-well immunoplate (NUNC) in an amount of 100 μl/well, followed by leaving to stand the immunoplate at 4° C. for 16 hours to immobilize the conjugate.
# The wells were then washed twice with PBS(−), and 1% BSA solution in PBS, which BSA was heated at 80° C. for 10 minutes, was placed in each well in an amount of 300 μl/well. The immunoplate was left to stand at 4° C. for 3 hours, and then the solution in each well was removed by suction.
# Each compound and VLA-4-IgG chimera protein (100 μl) were preliminarily reacted at room temperature for 20 minutes, and then the resulting mixture was allowed to react with the CS-1 peptide in each well at 30° C. for 3 hours. Thereafter, non-bound VLA-4-IgG chimera protein was removed by suction, and each well was washed twice with 0.1% BSA-containing TBS buffer (150 mM NaCl, 25 mM Tris-HCl, 1 mM MnCl2, PH7.4). To the bound VLA-4-IgG chimera protein, biotin-labelled anti-human IgG antibody (Vector) as a primary antibody was added, and then avidin-labelled horse radish peroxidase (Sigma) as a secondary antibody was added, thereby allowing the reactions. Then o-phenylenediamine as a substrate was added to color the reaction solution, and the absorbance at 490 nm was measured. From this absorbance, the binding inhibitory activity of each compound was determined.
melting point [°C],IC50 [1] [nM],SMILES
193 to 195,–,"O=C(N[C@@H](Cn1ccc(NC(=O)c2c(Cl)cccc2Cl)nc1=O)C(=O)O)NC1(C(=O)Nc2ccccc2)CCCCC1 [Compound 8, 3-(4-((2,6-dichlorophenyl)carbonylamino)-2-oxohydropyrimidinyl)-2-((((N-phenylcarbamoyl)cyclohexyl)amino)carbonylamino)propanoic Acid]"
–,3.8,"CS(=O)(=O)N1CC2(CCN(C(=O)N[C@@H](Cn3ccc(NC(=O)c4c(Cl)cccc4Cl)nc3=O)C(=O)O)CC2)c2ccccc21 [Compound 28, 3-(4-((2,6-dichlorophenyl)carbonylamino)-2-oxohydropyrimidinyl)-2-((1-(methylsulfonyl)spiro[indoline-3,4′-piperidin]-10-yl)carbonylamino)propanoic Acid]"
–,0.97,"O=C(Nc1ccn(C[C@H](NC(=O)N2CCC(n3c(=O)[nH]c4ccccc43)CC2)C(=O)O)c(=O)n1)c1c(Cl)cccc1Cl [Compound 32, 3-(4-((2,6-dichlorophenyl)carbonylamino)-2-oxohydropyrimidinyl)-2-((4-(2-oxo-3-azaindolinyl)piperidyl)carbonylamino)propanoic Acid]"
–,2.4,O=C(Nc1ccn(C[C@H](NC(=O)N2CCC3(CC2)C(=O)NCN3c2ccccc2)C(=O)O)c(=O)n1)c1c(Cl)cccc1Cl [Compound 35]
–,3.5,CC(=O)NC1(c2ccccc2)CCN(C(=O)N[C@@H](Cn2ccc(NC(=O)c3c(Cl)cccc3Cl)nc2=O)C(=O)O)CC1 [Compound 37]
250,–,O=C(Nc1ccc(C[C@@H](C(=O)O)N2C(=O)NC3(CCCCC3)C2=O)cc1)c1c(Cl)cccc1Cl [Compound 44]
–,4.5,"C[C@@H]1CCC[C@H](C)N1C(=O)N[C@@H](Cn1ccc(NC(=O)c2c(Cl)cccc2Cl)nc1=O)C(=O)O [Compound 50, 3-(4-((2,6-dichlorophenyl)carbonylamino)-2-oxohydropyrimidinyl)-2-((2,6-dimethylpiperidyl)carbonylamino)propanoic Acid]"
